Values of other authors, collected in patent US20200315935A1, “TOPICALLY APPLICABLE CHEMICAL PEEL COMPOSITION” (L'OREAL, priority 2015, published 2020).
Read-outs that look alike come from different tables or passages of the source.

Experiments:
[1] = acute oral toxicity, mutagenicity, skin irritation, skin sensitization, and phototoxicity

| SMILES | pKA | adverse effects in basic toxicological tests ([1]; listed as Phenylethyl resorcinol) | adverse effects in basic toxicological tests ([1]; listed as phenylethyl resorcinol) |
| --- | --- | --- | --- |
| Oc1cccc(O)c1 [Resorcinol, reference compound] | 9.32-9.81 | – | – |
| CC(c1ccccc1)c1ccc(O)cc1O (stereo not shown) [Phenylethyl Resorcinol] | 9.77-10.77 | not shown adverse effects | not been shown to have adverse effects |
